Experimental data taken from the supplement of paper PMC10307832.

Experiments:
Assay in all cases: relative viability (nuclei count vs DMSO), 5 days (fraction); higher = more cells survive
[1] = compound: C[As](C)SC[C@H](NC(=O)CC[C@H](N)C(=O)O)C(=O)NCC(=O)O [Darinaparsin] + C[C@]1(O)C[C@@H](c2nc(-c3ccc4ccc(-c5ccccc5)nc4c3)c3c(N)nccn32)C1 [Linsitinib] (partner 1 µM)
Method in brief: (§1)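 Relative viability equals treated-well nuclei counts divided by vehicle-well nuclei counts. Counts came from 4× images of lung cancer cell lines grown in 1536-well plates for 5 days after pin-tool dosing on the day after seeding. Dosing used one drug alone or a fixed anchor-drug dose plus five library-drug doses (not always all listed) in √10 steps, and values are medians of duplicate plates.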

[2] = compound: C1CC2=C(C1)C=C(C=C2)OC3=NC(=C4C(=N3)N(C=N4)CC5=CC=C(C=C5)C6=CC=CC=C6)N[C@@H](CC7=CC=CC=C7)CO [QS11] + CS(=O)(=O)N1CCN(Cc2cc3nc(-c4cccc5[nH]ncc45)nc(N4CCOCC4)c3s2)CC1 [Pictilisib] (partner 1 µM)
Method in brief: as §1

[3] = compound: CC1=C(C=C(C=C1)NC(=O)C2=CC(=CC=C2)C(C)(C)C#N)NC3=CC4=C(C=C3)N=CN(C4=O)C [AZ628] + CS(=O)(=O)CCNCc1ccc(-c2ccc3ncnc(Nc4ccc(OCc5cccc(F)c5)c(Cl)c4)c3c2)o1 [Lapatinib] (partner 2 µM)
Method in brief: as §1

[4] = compound: C[As](C)SC[C@H](NC(=O)CC[C@H](N)C(=O)O)C(=O)NCC(=O)O [Darinaparsin] + CC1(C)CCC(c2ccc(Cl)cc2)=C(CN2CCN(c3ccc(C(=O)NS(=O)(=O)c4ccc(N[C@H](CCN5CCOCC5)CSc5ccccc5)c(S(=O)(=O)C(F)(F)F)c4)cc3)CC2)C1 [Navitoclax] (partner 0.5 µM)
Method in brief: as §1

Cell Line: HCC-827
- relative viability ([1]; first compound 0.08 µM): 1.01
- relative viability ([1]; first compound 0.8 µM): 0.93
- relative viability ([1]; first compound 2.53 µM): 0.965
- relative viability ([1]; first compound 8 µM): 1.09
- relative viability ([2]; first compound 0.08 µM): 0.881
- relative viability ([2]; first compound 0.253 µM): 1.03
- relative viability ([2]; first compound 0.8 µM): 0.953
- relative viability ([2]; first compound 2.53 µM): 1.13
- relative viability ([2]; first compound 8 µM): 0.95
- relative viability ([3]; first compound 0.08 µM): 0.238
- relative viability ([3]; first compound 0.253 µM): 0.172
- relative viability ([3]; first compound 0.8 µM): 0.208
- relative viability ([3]; first compound 2.53 µM): 0.191
- relative viability ([3]; first compound 8 µM): 0.191
- relative viability ([4]; first compound 0.08 µM): 1.07
- relative viability ([4]; first compound 0.8 µM): 1.07
- relative viability ([4]; first compound 2.53 µM): 1.05
- relative viability ([4]; first compound 8 µM): 1.05

Cell Line: NCI-H1666
- relative viability ([1]; first compound 0.08 µM): 0.996
- relative viability ([1]; first compound 0.8 µM): 0.884
- relative viability ([1]; first compound 2.53 µM): 0.994
- relative viability ([1]; first compound 8 µM): 0.931
- relative viability ([2]; first compound 0.08 µM): 0.328
- relative viability ([2]; first compound 0.253 µM): 0.359
- relative viability ([2]; first compound 0.8 µM): 0.377
- relative viability ([2]; first compound 2.53 µM): 0.474
- relative viability ([2]; first compound 8 µM): 0.423
- relative viability ([3]; first compound 0.08 µM): 0.759
- relative viability ([3]; first compound 0.253 µM): 0.58
- relative viability ([3]; first compound 0.8 µM): 0.521
- relative viability ([3]; first compound 2.53 µM): 0.477
- relative viability ([3]; first compound 8 µM): 0.539
- relative viability ([4]; first compound 0.08 µM): 1.09
- relative viability ([4]; first compound 0.8 µM): 0.938
- relative viability ([4]; first compound 2.53 µM): 1.23
- relative viability ([4]; first compound 8 µM): 1.09

Cell Line: NCI-H322M
- relative viability ([1]; first compound 0.08 µM): 1.05
- relative viability ([1]; first compound 0.8 µM): 0.998
- relative viability ([1]; first compound 2.53 µM): 0.736
- relative viability ([1]; first compound 8 µM): 0.956
- relative viability ([2]; first compound 0.08 µM): 0.55
- relative viability ([2]; first compound 0.253 µM): 0.483
- relative viability ([2]; first compound 0.8 µM): 0.492
- relative viability ([2]; first compound 2.53 µM): 0.545
- relative viability ([2]; first compound 8 µM): 0.49
- relative viability ([3]; first compound 0.08 µM): 0.674
- relative viability ([3]; first compound 0.253 µM): 0.737
- relative viability ([3]; first compound 0.8 µM): 0.747
- relative viability ([3]; first compound 2.53 µM): 0.646
- relative viability ([3]; first compound 8 µM): 0.657
- relative viability ([4]; first compound 0.08 µM): 1.25
- relative viability ([4]; first compound 0.8 µM): 1.17
- relative viability ([4]; first compound 2.53 µM): 1.13
- relative viability ([4]; first compound 8 µM): 1.33

Cell Line: NCI-H838
- relative viability ([1]; first compound 0.08 µM): 1.28
- relative viability ([1]; first compound 0.8 µM): 0.962
- relative viability ([1]; first compound 2.53 µM): 0.997
- relative viability ([1]; first compound 8 µM): 1.24
- relative viability ([2]; first compound 0.08 µM): 0.399
- relative viability ([2]; first compound 0.253 µM): 0.388
- relative viability ([2]; first compound 0.8 µM): 0.394
- relative viability ([2]; first compound 2.53 µM): 0.382
- relative viability ([2]; first compound 8 µM): 0.476
- relative viability ([3]; first compound 0.08 µM): 1.05
- relative viability ([3]; first compound 0.253 µM): 0.992
- relative viability ([3]; first compound 0.8 µM): 0.572
- relative viability ([3]; first compound 2.53 µM): 0.956
- relative viability ([3]; first compound 8 µM): 1.04
- relative viability ([4]; first compound 0.08 µM): 1.51
- relative viability ([4]; first compound 0.8 µM): 1.15
- relative viability ([4]; first compound 2.53 µM): 1.15
- relative viability ([4]; first compound 8 µM): 1.5

Cell Line: NCI-H2228
- relative viability ([1]; first compound 0.08 µM): 0.817
- relative viability ([1]; first compound 0.8 µM): 0.702
- relative viability ([1]; first compound 2.53 µM): 0.743
- relative viability ([1]; first compound 8 µM): 0.746
- relative viability ([2]; first compound 0.08 µM): 0.254
- relative viability ([2]; first compound 0.253 µM): 0.507
- relative viability ([2]; first compound 0.8 µM): 0.513
- relative viability ([2]; first compound 2.53 µM): 0.427
- relative viability ([2]; first compound 8 µM): 0.319
- relative viability ([3]; first compound 0.08 µM): 1.11
- relative viability ([3]; first compound 0.253 µM): 1.13
- relative viability ([3]; first compound 0.8 µM): 0.784
- relative viability ([3]; first compound 2.53 µM): 0.9
- relative viability ([3]; first compound 8 µM): 1.17
- relative viability ([4]; first compound 0.08 µM): 0.856
- relative viability ([4]; first compound 0.8 µM): 0.996
- relative viability ([4]; first compound 2.53 µM): 1.02
- relative viability ([4]; first compound 8 µM): 0.825

Cell Line: NCI-H596
- relative viability ([1]; first compound 0.08 µM): 1.3
- relative viability ([1]; first compound 0.8 µM): 0.934
- relative viability ([1]; first compound 2.53 µM): 0.928
- relative viability ([1]; first compound 8 µM): 1.27
- relative viability ([2]; first compound 0.08 µM): 0.382
- relative viability ([2]; first compound 0.253 µM): 0.189
- relative viability ([2]; first compound 0.8 µM): 0.516
- relative viability ([2]; first compound 2.53 µM): 0.404
- relative viability ([2]; first compound 8 µM): 0.438
- relative viability ([3]; first compound 0.08 µM): 1.03
- relative viability ([3]; first compound 0.253 µM): 1.08
- relative viability ([3]; first compound 0.8 µM): 1.11
- relative viability ([3]; first compound 2.53 µM): 1.08
- relative viability ([3]; first compound 8 µM): 1.27
- relative viability ([4]; first compound 0.08 µM): 1.3
- relative viability ([4]; first compound 0.8 µM): 1.11
- relative viability ([4]; first compound 2.53 µM): 0.83
- relative viability ([4]; first compound 8 µM): 1.23

Cell Line: NCI-H647
- relative viability ([1]; first compound 0.08 µM): 1.84
- relative viability ([1]; first compound 0.8 µM): 1.1
- relative viability ([1]; first compound 2.53 µM): 1.17
- relative viability ([1]; first compound 8 µM): 1.53
- relative viability ([2]; first compound 0.253 µM): 0.379
- relative viability ([2]; first compound 0.8 µM): 0.41
- relative viability ([2]; first compound 2.53 µM): 0.685
- relative viability ([2]; first compound 8 µM): 0.478
- relative viability ([3]; first compound 0.08 µM): 1.25
- relative viability ([3]; first compound 0.253 µM): 1.02
- relative viability ([3]; first compound 0.8 µM): 0.982
- relative viability ([3]; first compound 2.53 µM): 1.19
- relative viability ([3]; first compound 8 µM): 0.894
- relative viability ([4]; first compound 0.08 µM): 1.42
- relative viability ([4]; first compound 0.8 µM): 1.09
- relative viability ([4]; first compound 2.53 µM): 0.981
- relative viability ([4]; first compound 8 µM): 1.04
